Source: EPA's ToxRefDB 2

Legend:
rat [1] = settings: Carcinogenicity, other, Oral, Feed, dose end: 102 week, group: systemic
rat [2] = settings: Subchronic oral toxicity in rodents, fischer, Gavage/Intubation, dose end: 13 week
rat [3] = settings: Sub-acute repeat dose toxicity; fischer; Oral; Gavage/Intubation; dose end: 14 day; group: systemic; systemic / hematology / leukocyte (wbc) count differential / leukocyte (wbc) + systemic / hematology / nucleated red blood cell (nrbc) / …
rat [4] = settings: Subchronic oral toxicity in rodents, other, Feed, dose end: 10 week, group: systemic, systemic / in life observation / body weight / body weight gain
dog [5] = settings: Chronic toxicity; beagle; Oral; Feed; dose end: 52 week; group: systemic; systemic / clinical chemistry / aspartate aminotransferase (ast/sgot) / aspartate aminotransferase (ast/sgot) + systemic / clinical …
rat [6] = settings: Multigenerational reproductive toxicity study, sprague dawley, Oral, Feed, dose end: 2 generation
rat [7] = settings: Combined chronic toxicity/carcinogenicity, sprague dawley, Oral, Feed, dose end: 24 month, group: systemic
rat [8] = settings: Subchronic oral toxicity in rodents, sprague dawley, Feed, dose end: 90 day, group: systemic
dog [9] = settings: Subchronic oral toxicity in nonrodent, beagle, Feed, dose end: 90 day, group: systemic, systemic / hematology / leukocyte (wbc) count differential / leukocyte (wbc) + systemic / hematology / mean corpuscular hemoglobin …
rat [10] = settings: Prenatal developmental toxicity study, sprague dawley, Oral, Gavage/Intubation, dose end: 15 GD
rabbit = settings: Prenatal developmental toxicity study, new zealand white, Oral, Gavage/Intubation, dose end: 19 GD
[11] = systemic / pathology microscopic / nose / inflammation
[12] = group: cholinesterase, cholinesterase / cholinesterase / cholinesterase / cholinesterase (che)
[13] = group: systemic, systemic / hematology / hematocrit (hct) / hematocrit (hct) + systemic / hematology / hemoglobin (hgb) / hemoglobin (hgb) + systemic / in …
[14] = group: systemic, systemic / hematology / polychromasia / polychromasia
[15] = group: offspring, systemic / in life observation / body weight / offspring (pup) weight
[16] = group: parental, systemic / in life observation / body weight / body weight gain
[17] = systemic / in life observation / body weight / body weight
[18] = systemic / clinical chemistry / globulins / globulins + systemic / clinical chemistry / glucose / glucose + systemic / in life observation…
[19] = systemic / organ weight / spleen / absolute + systemic / organ weight / spleen / relative to body weight
[20] = group: developmental, systemic / in life observation / body weight / fetal weight + developmental / developmental malformation / bone / unossified + developmental…
[21] = group: maternal, systemic / in life observation / body weight / body weight gain + systemic / in life observation / clinical signs / salivation + systemic / …
[22] = group: developmental, systemic / in life observation / body weight / fetal weight + developmental / developmental malformation / other / other
[23] = group: maternal, reproductive / reproductive performance / aborted / aborted + systemic / in life observation / food consumption / food consumption + …

Cc1cccc(C)c1N [2,6-Dimethylaniline]
LOAEL (rat [1]; systemic / in life observation / body weight / body weight gain): 50 mg/kg/day
NOAEL (rat [1]; systemic / in life observation / body weight / body weight gain + systemic / pathology microscopic / adrenal gland / adenoma + systemic / …): 15 mg/kg/day
LEL (rat [1]; [11]): 15 mg/kg/day
NEL (rat [1]; [11]): < 15 mg/kg/day
LEL (rat [2]; [12]): 160 mg/kg/day
LOAEL (rat [2]; [12]): > 310 mg/kg/day
NEL (rat [2]; [12]): 80 mg/kg/day
NOAEL (rat [2]; [12]): ≥ 310 mg/kg/day
LOAEL (rat [2]; [13]): 310 mg/kg/day
NOAEL (rat [2]; [13]): 160 mg/kg/day
LEL (rat [2]; [14]): 20 mg/kg/day
NEL (rat [2]; [14]): < 20 mg/kg/day
LEL (rat [3]): 310 mg/kg/day
LOAEL (rat [3]): 310 mg/kg/day
NEL (rat [3]): 160 mg/kg/day
NOAEL (rat [3]): 160 mg/kg/day
LEL (rat [4]): 150 mg/kg/day
LOAEL (rat [4]): 150 mg/kg/day
NEL (rat [4]): 50 mg/kg/day
NOAEL (rat [4]): 50 mg/kg/day

COC(=O)c1ccccc1S(=O)(=O)NC(=O)N(C)c1nc(C)nc(OC)n1 [Tribenuron-methyl]
LEL (dog [5]): 8.16 mg/kg/day
LOAEL (dog [5]): 8.16 mg/kg/day
NEL (dog [5]): 0.79 mg/kg/day
NOAEL (dog [5]): 0.79 mg/kg/day
LEL (rat [6]; [15]): 1.9 mg/kg/day
NEL (rat [6]; [15]): < 1.9 mg/kg/day
NOAEL (rat [6]; group: offspring, systemic / in life observation / body weight / offspring (pup) weight gain): 1.9 mg/kg/day
LOAEL (rat [6]; group: offspring, systemic / in life observation / body weight / offspring (pup) weight gain + systemic / in life observation / body weight / offspring (pup) …): 19 mg/kg/day
LEL (rat [6]; [16]): 19 mg/kg/day
LOAEL (rat [6]; [16]): 21 mg/kg/day
NEL (rat [6]; [16]): 1.9 mg/kg/day
NOAEL (rat [6]; group: parental, systemic / in life observation / body weight / body weight gain + systemic / in life observation / body weight / body weight): 2.2 mg/kg/day
LEL (rat [7]; [17]): 1.25 mg/kg/day
LOAEL (rat [7]; [17]): 12.5 mg/kg/day
NEL (rat [7]; [17]): < 1.25 mg/kg/day
NOAEL (rat [7]; systemic / in life observation / body weight / body weight + systemic / pathology microscopic / mammary gland / adenocarcinoma + systemic / …): 1.25 mg/kg/day
LOAEL (rat [8]; [18]): 118 mg/kg/day
NOAEL (rat [8]; [18]): 7 mg/kg/day
LEL (rat [8]; [19]): 8 mg/kg/day
NEL (rat [8]; [19]): < 8 mg/kg/day
LEL (dog [9]): 73.3 mg/kg/day
LOAEL (dog [9]): > 73.3 mg/kg/day
NEL (dog [9]): 14.9 mg/kg/day
NOAEL (dog [9]): ≥ 73.3 mg/kg/day
LOAEL (rat [10]; group: developmental, systemic / in life observation / body weight / fetal weight + developmental / developmental malformation / bone / unossified): 125 mg/kg/day
LEL (rat [10]; [20]): 125 mg/kg/day
NEL (rat [10]; [20]): 20 mg/kg/day
NOAEL (rat [10]; [20]): 20 mg/kg/day
LEL (rat [10]; [21]): 125 mg/kg/day
LOAEL (rat [10]; [21]): 125 mg/kg/day
NEL (rat [10]; [21]): 20 mg/kg/day
NOAEL (rat [10]; [21]): 20 mg/kg/day
LOAEL (rabbit; group: developmental, systemic / in life observation / body weight / fetal weight): 80 mg/kg/day
LEL (rabbit; [22]): 80 mg/kg/day
NEL (rabbit; [22]): 20 mg/kg/day
NOAEL (rabbit; [22]): 20 mg/kg/day
LOAEL (rabbit; group: maternal, reproductive / reproductive performance / aborted / aborted + systemic / in life observation / food consumption / food consumption): 80 mg/kg/day
LEL (rabbit; [23]): 80 mg/kg/day
NEL (rabbit; [23]): 20 mg/kg/day
NOAEL (rabbit; [23]): 20 mg/kg/day
